Laboratory results reported in patent US20110014204A1, “Cancer Chemoprevention Strategy Based on Loss of Imprinting of IGF2” (priority 2006, published 2011).
One block for each molecule: values may come before it.

Key:
mouse ES cells = experiment: IGF2 stimulation of mouse ES cells, gene expression by real-time RT-PCR, with or without NVP-AEW541; format: cell-based; details: for increase in Cdc6 gene expression: 800 ng/ml mouse Igf2 recombinant protein
Experimental: (§1) Mouse ES cells were cultured in defined medium and treated with 800 ng/ml mouse lgf2 protein. Gene expression was analyzed by real-time RT-PCR and normalized to β-actin. Shown is the expression level without (black boxes) and with (gray boxes) the IGF1R inhibitor 3 μM NVP-AEW541 (a pyrrolo-2,3d-pyrimidine), normalized to time 0. The bars indicate standard error.
as §1, with “(pink” for “(gray”, “IGF1R R” for “IGF1R”, “NVP-AEW541,” for “NVP-AEW541 (a pyrrolo-2,3d-pyrimidine),”, “bar represents” for “bars indicate”
For IGF2 stimulation, wild type ES cells were isolated as described above, and cultured in ESGRO Complete Basal Medium with 800 ng/ml of mouse Igf2 recombinant protein (StemCell Technologies), with or without 3 μM NVP-AEW541 (Novartis). Cells were washed with PBS twice and RNA was extracted using the RNeasy Kit (QIAGEN) at Oh, 3 h, 6 h, 10 h, and 24 h. Gene expression was assayed by real-time quantitative RT-PCR as described above.
It remained theoretically possible that the observed difference in gene expression simply reflected the over-representation of progenitor cells within the intestinal crypts, rather than a change in cellular gene expression per se. To confirm the latter, mouse embryonic stem (ES) cells were derived and plated in ESGRO Complete Clonal Grade defined medium (Chemicon), which contains no IGF2 and allows growth of undifferentiated ES cells without a feeder layer, which was done with or without 800 ng/ml of mouse Igf2 recombinant protein (StemCell Technologies). Consistent with the microarray experiments, Igf2 induced a 50% and 56% increase in Cdc6 gene expression at 3 and 6 hours, respectively, and 40% and 25% at 10 and 24 hours, respectively (FIG. 3).

IGF1R [1] = target: T1, IGF1R (Homo sapiens, UniProt P08069); details: previously estimated; read-out: kD of IGF1R for IGF2; cited from earlier work
Target sequence in this assay (P08069 31-736 limits assumed, species assumed): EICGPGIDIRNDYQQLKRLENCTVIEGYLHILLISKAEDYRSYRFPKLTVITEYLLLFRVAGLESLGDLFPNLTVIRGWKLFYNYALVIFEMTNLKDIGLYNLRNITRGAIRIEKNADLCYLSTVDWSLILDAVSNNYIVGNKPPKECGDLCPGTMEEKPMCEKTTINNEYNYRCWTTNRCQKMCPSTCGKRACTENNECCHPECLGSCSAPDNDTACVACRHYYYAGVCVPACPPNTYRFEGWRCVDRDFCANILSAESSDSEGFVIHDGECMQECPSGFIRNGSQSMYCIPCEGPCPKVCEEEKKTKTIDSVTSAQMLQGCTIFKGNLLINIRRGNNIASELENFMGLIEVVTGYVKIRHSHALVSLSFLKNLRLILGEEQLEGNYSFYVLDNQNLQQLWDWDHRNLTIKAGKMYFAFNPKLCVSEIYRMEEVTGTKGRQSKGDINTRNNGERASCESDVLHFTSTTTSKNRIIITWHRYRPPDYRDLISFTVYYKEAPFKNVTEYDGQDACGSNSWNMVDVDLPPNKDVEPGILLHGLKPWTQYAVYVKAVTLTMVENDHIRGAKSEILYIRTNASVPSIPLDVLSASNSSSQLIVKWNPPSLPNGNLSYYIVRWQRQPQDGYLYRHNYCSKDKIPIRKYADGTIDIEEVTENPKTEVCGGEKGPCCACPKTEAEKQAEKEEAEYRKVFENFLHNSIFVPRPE
Target sequence in this assay (P08069 741-1367 partner limits assumed, species assumed): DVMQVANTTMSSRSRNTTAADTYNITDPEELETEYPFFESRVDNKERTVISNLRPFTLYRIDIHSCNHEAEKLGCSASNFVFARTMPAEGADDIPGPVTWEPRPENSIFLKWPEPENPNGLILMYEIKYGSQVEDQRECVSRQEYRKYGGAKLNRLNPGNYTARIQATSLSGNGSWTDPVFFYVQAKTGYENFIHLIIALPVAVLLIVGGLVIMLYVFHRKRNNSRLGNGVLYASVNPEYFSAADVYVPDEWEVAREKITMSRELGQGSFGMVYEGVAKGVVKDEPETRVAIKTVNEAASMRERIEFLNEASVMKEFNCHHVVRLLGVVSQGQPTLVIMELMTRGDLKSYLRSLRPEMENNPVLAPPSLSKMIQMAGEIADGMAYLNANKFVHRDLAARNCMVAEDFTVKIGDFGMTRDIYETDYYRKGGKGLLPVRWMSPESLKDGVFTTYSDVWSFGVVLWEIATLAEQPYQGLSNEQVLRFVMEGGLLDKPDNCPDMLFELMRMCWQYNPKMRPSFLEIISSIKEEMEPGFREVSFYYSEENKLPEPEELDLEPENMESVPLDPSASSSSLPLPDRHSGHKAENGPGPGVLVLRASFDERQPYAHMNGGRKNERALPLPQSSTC

Akt/PKB = experiment: Microfluidic chamber single cell immunocytochemistry of Akt/PKB activation (phospho-Akt Ser 473) in LOI(+) and LOI(−) MEF cells; format: cell-based, mouse; details: for inhibition of IGF2-triggered Akt activation: 60 min coincubation with 400 ng/ml IGF2 and 3 μM NVP-AEW541
Experimental: (A) Akt/PKB activation was assayed by single cell immunocytochemistry with an antibody to phosphorylated Akt (Ser 473), in a monolithic 2-layer PDMS chip sealed with a glass coverslip, with defined media delivery controlled by a multiplexed system of valves. Live LOI(+) and LOI(−) MEF cells were stimulated within the microfluidic chips with varying doses of IGF2, with measurements at multiple time points at each IGF2 concentration. […] For each cell type, IGF2 concentration, and time point, at least 200 individual cellular measurements were obtained by digital imaging and analysis. (B) Inhibition of Akt activation by NVP-AEW541. The cells were assayed as in (A) at 60 min after coincubation with 400 ng/ml IGF2 and 3 μM NVP-AEW541 and compared with the unstimulated control. Each bar is based on measurements of >400 cells. Asterisk indicates statistical difference vs LOI(+) control (t test, P<0.001) (C) Single cell analysis of ERK activation by IGF2 in LOI(+) and LOI(−) MEF cells. Erk activation was assayed by single immunocytochemistry within microfluidic chips using an antibody to phosphorylated Erk2 from Upstate (Charlottesville, Va.). LOI(+) cells (gray) and LOI(−) cells (black) were exposed to 400 ng/ml IGF2 for indicated times. […] Error bars represent SD. Standard error bars are completely subsumed by the symbols on this scale. (D) Gene expression levels in mouse embryonic fibroblasts. Quantitative real-time PCR was performed on LOI(+) and LOI(−) MEF cells, with expression normalized to transferring receptor expression. The expression level in LOI(+) samples (black) relative to LOI(−) samples (gray) is shown. The bars indicate standard error.
The immunostaining automation device consists of a monolithic 2-layer PDMS chip sealed with a glass coverslip, fabricated using techniques described previously (Unger et al., Science 288 (2000) 288:113-116). Multiplexing valves were actuated by pressure lines connected to off-device solenoid valves. The chip architecture, performance and validation are all described in a separate manuscript submitted for publication. The glass substrate of the cell culture chamber was coated by introducing 0.1% gelatin (Sigma) into the device for at least 30 minutes, then cells were introduced and allowed to attach for 3 hours. IGF2 (StemCell Technologies) dissolved in cell media was introduced to each chamber at different times so that the end of all stimulation periods coincided. To end the experiment, ice-cold PBS (Invitrogen) was introduced into all chambers followed immediately by 4% paraformaldehyde (Electron Microscopy Systems) for 20 minutes. Cells were permeabilized with 0.1% Triton X-100 (Sigma) for 5 min and blocked with 10% goat serum (Sigma), with PBS washes in between. […] Using custom MATLAB (Mathworks) programs, the images were […], stitched together, and quantified. […] For each cell type and time point, 200-300 cells were analyzed in this manner to ensure statistical significance.
Since both the endogenous IGF2 and IGF2 used in the MEF experiments are susceptible to IGF2 binding protein (IBP)-based inactivation, the dose of an IBP-resistant IGF2 variant was determined producing similar levels of Akt activation. […]

[2] = test system: aberrant crypt foci (ACF); experiment: Azoxymethane (AOM)-induced aberrant crypt foci (ACF) in LOI(+) and LOI(−) mice, NVP-AEW541 by oral gavage; format: in vivo; details: for AOM-induced ACF formation: AOM plus NVP-AEW541 50 mg/kg oral gavage for 6 weeks; for decrease in ACFs normalized to colon surface area: AOM, treated with the inhibitor; for ACF per colon: AOM intraperitoneally weekly for 3 weeks, sacrificed at 5 weeks, no inhibitor
Experimental: ACF formation in the colon was induced by AOM intraperitoneal injection, and treatment with NVP-AEW541 was by gastric gavage. Each ACF was formed of 1-4 aberrant crypts, and the number of ACF (# of ACF), the number of total aberrant crypts (# of AC), and the average number of aberrant crypts per ACF were measured.
(A) ACF formation in the colon was induced by AOM i.p. injection, and treatment with NVP-AEW541 was by gastric […]. Each ACF was formed of […] aberrant crypts, and the number of ACF (# of ACF), the number of total aberrant crypts (# of AC), and the average number of aberrant crypts per ACF were measured. LOI(+) AOM mice (dark gray bars), LOI(−) AOM mice (black bars), LOI(+) AOM NVP mice (light gray bars), LOI(−) AOM NVP mice (gray bars). (B) The number of ACF and the number of total aberrant crypts (AC) were corrected by colon surface area (cm^2).
7 week old LOI(+) and LOI(−) littermate controls were treated with AOM at 10 mg/kg body weight intraperitoneally once per week for three weeks, and euthanized 5 weeks after the first dose of AOM. The entire colon was resected from mice after laparotomy, flushed with PBS, filled with 10% buffered formalin (Sigma) for one minute, opened longitudinally, fixed flat between filter paper in formalin at 4° C. overnight, rinsed with PBS, and stained with 0.2% methylene blue in saline. The number of ACF per colon and the number of aberrant crypts per ACF were scored under a light microscopy as previously described Bird, Cancer Lett (1987) 37:147-151). NVP-AEW541 (50 mg/kg) was administered by oral gavage, beginning 1 week before AOM treatment, and NVP-AEW541 was administered 7 days/week, twice a day for 5 weekdays and once a day for 2 weekend days, for 6 weeks until sacrifice.
Because of known strain variation in progression of these lesions, littermate controls were treated with and without LOI, in which the dams were heterozygous for a deletion of the H19 differentially methylated region (DMR); inheritance of a maternal allele lacking the DMR leads to activation of the normally silent allele of Igf2 [LOI(+)], while inheritance of a wild type maternal allele leads to normal imprinting [LOI(−)]. Eight LOI(+) and 14 LOI(−) mice were given AOM intraperitoneally weekly for 3 weeks, sacrificed at 5 weeks after the first dose, and ACF were scored by the method of Bird (1987). Histologic examination of colons from AOM-treated mice confirmed the presence of ACF, with hyperproliferative features including increased mitosis, crypt enlargement and crypt disarray (FIG. 12). […] An additional intriguing finding in AOM-treated LOI(+) mice was cystically dilated crypts lined by enlarged cells with atypical nuclei and that contained necrotic debris, that were reminiscent of sessile serrated adenomas (SSAs) seen in the human colon (FIG. 12). SSAs also show crypt dilatation in association with cytologic atypia and are currently of immense interest for their recently recognized association with colorectal cancer (Snover et al., Am J Clin Pathol (2005) 124:380-391). It will thus be of interest to determine whether SSAs are associated with LOI in the human population.
An additional 9 LOI(+) mice and 9 LOI(−) control littermates were similarly exposed to AOM, adding treatment with NVP-AEW541, an IGF1R inhibitor, at a dose of 50 mg/kg by oral gavage daily for 6 weeks (twice daily except daily on weekends). […] Thus, LOI of lgf2 increases the sensitivity to AOM through an IGF1R-dependent mechanism.
Eight LOI(+) and 14 LOI(−) mice were given AOM intraperitoneally weekly for 3 weeks, sacrificed at 5 weeks after the first dose, and ACFs were scored as described (Bird (1987)). Histologic examination of colons from AOM-treated mice confirmed the presence of ACFs, with hyperproliferative features including increased mitosis, crypt enlargement and crypt disarray (FIG. 14A, B). […]

intestinal crypts = experiment: Proliferation-related gene expression in laser capture microdissected intestinal crypts of mice treated with NVP-AEW541 for 3 weeks (real-time PCR); format: in vivo; details: mice treated with NVP-AEW541 50 mg/kg oral gavage for 3 weeks; LOI(−) normalized to 1.0
Experimental: Qunatitative real-time PCR was performed on laser capture microdissected intestinal crypts from 12 LOI(+) and 9 LOI(−) mice. Expression was normalized to β-actin, and the expression level in LOI(+) samples (gray) relative to LOI(−) samples (black) is shown. The bars indicate standard error. […] Analysis was by quantitative real-time PCR of laser capture microdissected crypts from four LOI(+) mice and four LOI(−) mice treated with NVP-AEW541 for 3 weeks. LOI(+) (gray bars), LOI(−) mice (black bars normalized to 1.0).
For validation, LCM was performed on an additional 12 LOI(+) and 9 LOI(−) mice, isolating approximately 800 crypts yielding more than 300 ng of total RNA from each. RNA samples were reverse-transcribed using SUPERSCRIPT II (Invitrogen), and quantified using SYBR Green PCR Core Reagents and an ABI Prism 7700 Sequence Detection System (Applied Biosystems), and normalized to β-actin.
Four LOI(+) and four LOI(−) mice were also treated with NVP-AEW541 to inhibit IGF2 signaling, at a dose of 50 mg/kg by oral gavage daily for 3 weeks (twice daily except daily on weekends). NVP-AEW541 is an ATP-competitive inhibitor of IGF-IR which blocks signaling at the IGF1 receptor, which mediates IGF2 signaling (Garcia-Echeverria et al., Cancer Cell (2004) 5:231-239). […] Thus, LOI-induced changes in proliferation-related gene expression were mediated, at least in part, through IGF2 signaling itself.

IGF1 receptor = target: T2, IGF1 receptor (Mus musculus, UniProt Q60751); experiment: Western blot of IGF2 signaling at the IGF1 receptor in NIH 3T3 cells with varying NVP-AEW541; format: cell-based; details: varying concentrations of NVP-AEW541, with or without IGF2
T2 construct: endogenous in cells; host or cells: NIH 3T3 cells
T2 sequence (Q60751 31-1373): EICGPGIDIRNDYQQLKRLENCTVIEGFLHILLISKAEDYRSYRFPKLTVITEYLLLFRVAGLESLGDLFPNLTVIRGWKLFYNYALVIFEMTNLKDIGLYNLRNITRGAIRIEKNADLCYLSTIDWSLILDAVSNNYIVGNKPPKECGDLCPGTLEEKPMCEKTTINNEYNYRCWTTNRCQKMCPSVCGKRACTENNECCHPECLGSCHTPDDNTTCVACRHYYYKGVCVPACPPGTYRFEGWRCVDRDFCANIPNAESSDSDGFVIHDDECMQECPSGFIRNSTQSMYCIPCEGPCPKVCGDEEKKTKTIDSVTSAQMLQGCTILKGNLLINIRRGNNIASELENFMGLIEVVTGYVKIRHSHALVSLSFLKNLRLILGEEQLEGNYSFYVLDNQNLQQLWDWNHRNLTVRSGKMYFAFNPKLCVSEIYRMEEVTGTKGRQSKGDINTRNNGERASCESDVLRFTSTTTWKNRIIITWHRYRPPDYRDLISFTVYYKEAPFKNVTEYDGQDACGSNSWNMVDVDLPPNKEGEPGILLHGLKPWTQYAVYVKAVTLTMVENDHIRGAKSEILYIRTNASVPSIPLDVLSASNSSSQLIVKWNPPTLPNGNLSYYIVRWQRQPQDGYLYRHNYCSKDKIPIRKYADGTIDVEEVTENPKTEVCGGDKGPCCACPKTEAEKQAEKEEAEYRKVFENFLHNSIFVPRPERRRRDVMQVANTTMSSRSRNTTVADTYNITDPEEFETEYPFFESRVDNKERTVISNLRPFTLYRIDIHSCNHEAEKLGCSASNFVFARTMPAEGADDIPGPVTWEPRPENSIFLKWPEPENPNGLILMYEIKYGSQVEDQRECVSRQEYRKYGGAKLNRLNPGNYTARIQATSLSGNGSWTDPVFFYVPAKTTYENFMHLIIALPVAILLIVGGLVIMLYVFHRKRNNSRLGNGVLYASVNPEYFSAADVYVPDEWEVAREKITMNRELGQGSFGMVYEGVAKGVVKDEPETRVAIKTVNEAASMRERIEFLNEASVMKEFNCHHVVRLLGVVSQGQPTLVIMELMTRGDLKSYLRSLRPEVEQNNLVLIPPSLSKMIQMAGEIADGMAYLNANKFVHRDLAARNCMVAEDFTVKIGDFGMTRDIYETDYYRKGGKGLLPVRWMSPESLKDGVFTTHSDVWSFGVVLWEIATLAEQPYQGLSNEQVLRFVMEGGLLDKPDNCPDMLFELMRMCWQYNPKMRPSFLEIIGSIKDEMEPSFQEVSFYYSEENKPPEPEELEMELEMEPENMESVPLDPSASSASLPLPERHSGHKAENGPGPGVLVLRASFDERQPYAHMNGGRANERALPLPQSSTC
Experimental: NIH 3T3 cells were passaged every 3 days and maintained with low glucose DMEM plus 10% CBS in 5% CO2. The day prior to transfection cells were trypinsized and seeded into PLL-coated glass bottom Mattek dishes. Cells typically reached about 70% confluence the next day, when they were transfected with eGFP-Akt-PH plasmid with Fugene lipid following the manufacturer's instructions. 8 hours after transfection, cells were starved in 0.2% CBS in low glucose DMEM (with no antibiotics) for at least 12 hours. Western blots were performed with the antibodies shown, and varying concentrations of NVP-AEW541, with or without IGF2.

IGF1R [3] = target: T1, IGF1R; details: cited from earlier work
Target sequence in this assay (P08069 31-1367, species assumed): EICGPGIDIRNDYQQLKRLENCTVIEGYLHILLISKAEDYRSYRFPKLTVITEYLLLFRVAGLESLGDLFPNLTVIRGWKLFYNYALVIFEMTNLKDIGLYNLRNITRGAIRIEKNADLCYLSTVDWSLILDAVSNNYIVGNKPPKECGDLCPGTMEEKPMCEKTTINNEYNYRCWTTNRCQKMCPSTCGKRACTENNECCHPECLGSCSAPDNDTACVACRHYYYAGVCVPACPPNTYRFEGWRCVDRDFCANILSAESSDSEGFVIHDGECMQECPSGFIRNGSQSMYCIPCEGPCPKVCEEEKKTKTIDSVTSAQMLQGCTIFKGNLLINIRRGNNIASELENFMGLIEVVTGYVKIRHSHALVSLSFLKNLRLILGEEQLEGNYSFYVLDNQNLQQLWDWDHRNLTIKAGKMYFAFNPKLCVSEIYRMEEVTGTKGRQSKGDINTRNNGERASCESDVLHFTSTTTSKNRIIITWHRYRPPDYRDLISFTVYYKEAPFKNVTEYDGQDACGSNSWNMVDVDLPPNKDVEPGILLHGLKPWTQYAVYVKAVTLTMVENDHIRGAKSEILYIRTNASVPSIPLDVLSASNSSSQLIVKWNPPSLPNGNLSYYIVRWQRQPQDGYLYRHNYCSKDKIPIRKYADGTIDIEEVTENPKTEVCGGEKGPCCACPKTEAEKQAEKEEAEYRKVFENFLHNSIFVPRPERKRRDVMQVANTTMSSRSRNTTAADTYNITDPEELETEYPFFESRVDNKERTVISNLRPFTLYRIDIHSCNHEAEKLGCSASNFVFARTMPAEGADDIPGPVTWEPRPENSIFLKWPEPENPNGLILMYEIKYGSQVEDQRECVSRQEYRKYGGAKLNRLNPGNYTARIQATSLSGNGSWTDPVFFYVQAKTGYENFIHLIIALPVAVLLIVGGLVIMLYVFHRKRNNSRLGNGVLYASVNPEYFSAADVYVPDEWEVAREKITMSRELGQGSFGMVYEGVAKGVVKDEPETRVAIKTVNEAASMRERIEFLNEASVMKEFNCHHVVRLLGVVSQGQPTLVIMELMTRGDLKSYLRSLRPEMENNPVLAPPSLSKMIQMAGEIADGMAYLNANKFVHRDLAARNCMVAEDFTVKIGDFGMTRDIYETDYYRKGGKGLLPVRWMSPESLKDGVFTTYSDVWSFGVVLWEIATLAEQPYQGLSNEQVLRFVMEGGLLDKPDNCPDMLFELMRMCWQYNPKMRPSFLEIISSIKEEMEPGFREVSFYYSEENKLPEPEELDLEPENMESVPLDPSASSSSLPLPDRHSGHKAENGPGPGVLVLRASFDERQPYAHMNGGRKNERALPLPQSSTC

Molecule: insulin-like growth factor 2 [IGF2]
- increase in Cdc6 gene expression (mouse ES cells; 3 hours): 50%
- increase in Cdc6 gene expression (mouse ES cells; 6 hours): 56%
- increase in Cdc6 gene expression (mouse ES cells; 10 hours): 40%
- increase in Cdc6 gene expression (mouse ES cells; 24 hours): 25%
- Kd (IGF1R [1]): 1 to 10 nM
- Akt signal at higher IGF2 doses (Akt/PKB; LOI(+) MEF cells, IGF2 doses above 400 ng/ml): progressively more transient and less pronounced
- duration of sustained Akt activation (Akt/PKB; LOI(+) MEF cells, lowest IGF2 concentration 400 ng/ml): > 120 min
- return of Akt activation to the baseline (Akt/PKB; LOI(−) MEF cells, IGF2 400, 800 and 1600 ng/ml): ≤ 90 min

- inhibition of IGF2 signaling at the IGF1 receptor (IGF1 receptor): blocks IGF2 at IGF1R
Molecule: Nc1ncnc2c1c(-c1cccc(OCc3ccccc3)c1)cn2C1CC(CN2CCC2)C1 (stereo not shown) [NVP-AEW541]
- AOM-induced ACF formation ([2]; LOI(+) mice): 7.8±1.2 ACF per colon
- decrease in ACFs normalized to colon surface area ([2]; LOI(+) mice): 56%
- AOM-induced ACF formation ([2]; LOI(−) mice): 11.3±1.6 ACF per colon
- decrease in ACFs normalized to colon surface area ([2]; LOI(−) mice): no decrease
- effect on IGF2-induced increased expression of Cdc6 (mouse ES cells; 800 ng/ml Igf2, 3 μM NVP-AEW541, all time points): completely abrogated
- Ccne1 expression in LOI(+) crypts relative to LOI(−) crypts (intestinal crypts): 0.57 fold
- Cdc6 expression in LOI(+) crypts relative to LOI(−) crypts (intestinal crypts): 0.49 fold
- Chaf1a expression in LOI(+) crypts relative to LOI(−) crypts (intestinal crypts): 0.42 fold
- Lig1 expression in LOI(+) crypts relative to LOI(−) crypts (intestinal crypts): 0.42 fold
- Mcm3 expression in LOI(+) crypts relative to LOI(−) crypts (intestinal crypts): 0.65 fold
- Mcm5 expression in LOI(+) crypts relative to LOI(−) crypts (intestinal crypts): 0.48 fold
- inhibition of IGF2-triggered Akt activation (Akt/PKB; LOI(+) MEF cells): significantly below the baseline
- inhibition of IGF2-triggered Akt activation (Akt/PKB; LOI(−) MEF cells): inhibited to the baseline levels
- selectivity for IGF1R over the insulin receptor (IGF1R [3]): specifically inhibits IGF1R over the related insulin receptor

Molecule: CN=[N+](C)[O-] [AOM, azoxymethane]
- ACF per colon ([2]; LOI(+) mice): 19.8±2.2 ACF per colon
- ACF per colon ([2]; LOI(−) mice): 12.4±0.9 ACF per colon
